The subject of data set [1] is Fibroblasts derived from human normal skin (CRL-1836; ATCC). Description: Toxicity test: number of viable cells with Cell Counting Kit-8. The following applies: for Number of Viable Cells (cells): cells after 72 hours of culture. On the technique in general: Formazan colour is commonly taken as a measure of viable cells.
Source text: (§1) For the cells after the culture solution was collected in Example 6, the number of viable cells was counted in the same manner as in Example 4.
(§2) For the cells after the culture solution was collected in Example 10, the number of viable cells was counted as in the same manner in Example 4.
(§3) For the cells after the culture solution was collected in Example 14, the number of viable cells was counted in the same manner as in Example 4.
(§4) For the cells after the culture solution was collected in Example 17, the number of viable cells was counted in the same manner as in Example 4.
(§5) For the cells after the culture solution was collected in Example 20, the number of viable cells was counted in the same manner as in Example 4.
The test system is the same in data set [2].
Source text: as §1, §2, §3, §4, §5

Read-outs that look alike come from different tables or passages of the source. Where a SMILES comes first, the peptide text is derived from it. Where no end group is shown, it is not given here.

Turning to `CC(C)C[C@H](N)C(=O)N[C@@H](CCC(=O)O)C(=O)N[C@@H](Cc1c[nH]cn1)C(=O)N[C@@H](C)C(N)=O` [C-terminal-Amidated LEHA] (H-LEHA-NH2), the “Number of Viable Cells (cells)” value in data set [1] (peptide 10 μg/ml) is listed as 2.6 × 10^4 cells.

Take `CC(C)C[C@H](N)C(=O)N[C@@H](CC(=O)O)C(=O)N[C@@H](Cc1c[nH]cn1)C(=O)N[C@@H](C)C(=O)O` [LDHA, Leu-Asp-His-Ala] (H-LDHA-OH): the “number of viable cells, result in words” value in data set [1] (1 μg/ml, versus control) was “no decrease”. The “Number of Viable Cells (cells)” value in data set [1] (peptide 1 μg/ml) was 3.3 × 10^4 cells.

`CC(C)C[C@H](N)C(=O)N[C@@H](CCC(=O)O)C(=O)N[C@@H](Cc1c[nH]cn1)C(=O)O` [LEH, Leu-Glu-His] (H-Leu-Glu-His-OH): the “number of viable cells, result in words” value in data set [2] is “no significant decrease”.

Consider `CC(C)C[C@H](N)C(=O)N[C@@H](CCC(=O)O)C(=O)N[C@@H](Cc1c[nH]cn1)C(=O)N[C@@H](C)C(=O)O` [LEHA, Leu-Glu-His-Ala] (H-LEHA-OH), for which the “number of viable cells, result in words” value in data set [1] (LEH and LEHA peptides prepared from soy protein, stated in present tense) is reported as “no significant decrease”. Besides, the “Number of Viable Cells (cells)” value in data set [1] (peptide 10 μg/ml) is listed as 2.9 × 10^4 cells.

As for `CC(C)C[C@H](N)C(=O)N[C@@H](CCC(=O)O)C(=O)N[C@@H](CCCCN)C(=O)N[C@@H](C)C(=O)O` [LEKA, Leu-Glu-Lys-Ala] (H-LEKA-OH), the “number of viable cells, result in words” value in data set [1] (10 μg/ml, versus control) is “no decrease”. In addition, in data set [1] (peptide 10 μg/ml), the “Number of Viable Cells (cells)” value is 3.6 × 10^4 cells.

Consider `CC(=O)N[C@@H](CC(C)C)C(=O)N[C@@H](CCC(=O)O)C(=O)N[C@@H](Cc1c[nH]cn1)C(=O)N[C@@H](C)C(=O)O` [N-terminal-Acetylated-LEHA] (Ac-LEHA-OH), for which the “Number of Viable Cells (cells)” value in data set [1] (peptide 10 μg/ml) is given as 2.8 × 10^4 cells.

In the case of LEHAF [LEHAF, Leu-Glu-His-Ala-Phe], the “number of viable cells, result in words” value in data set [1] (1 or 3 μg/ml, versus control) is “no significant decrease”. Further, the “Number of Viable Cells (cells)” value in data set [1] (peptide 1 μg/ml) and in data set [1] (peptide 3 μg/ml) was 3.0 × 10^4 cells each time.

Source of the values: patent US7989590B2, “Peptides that increase collagen or hyaluronic acid production” (Rohto Pharmaceutical Co., Ltd, priority 2005, dated 2011).
